The values below come from patent publication US12295968B2, “Compositions and methods for targeted immunomodulatory antibodies and fusion proteins” (The Johns Hopkins University, priority 2010, dated 2025).

Entries after “also recorded” stand apart in the source; their conditions may differ.

The test system of assay [1] is mouse MB49 bladder cancer cells. As to the kind of experiment: Surface exposure of calreticulin (CRT), immunofluorescence cytometry. It is filed as cell-based. The following applies: 4 h.
Assay [2] concerns tumor-reactive CD8^+ T cells. As to the kind of experiment: Flow cytometry of IFN-γ expression in CD8^+ T cells from tumor and draining lymph node, stimulation with MB49 cell lysates. It counts as in vivo, C57BL/6 mice. The source says:
(§1) (FIG. 55A) In vivo depletion of tumor-infiltrating CD4^+CD25^+FoxP3^+ T cells by treatment of tumor-bearing mice with anti-CD4 antibody. C57BL/6 mice injected with 5×10^5 MB49 tumor cells s.c. were left untreated (control) or administered an anti-CD4 antibody (Clone GK1.5) i.p. at 5 d and 9 d following tumor challenge. CD4^+CD25^+FoxP3^+ T cells infiltrating tumors isolated from mice at d16 following tumor challenge were detected by flow cytometry. […] Flow cytometric analyses of peripheral blood mononuclear cells isolated from mice at d16 following tumor challenge determined the percentage of CD4^+ T cells or CD8^+ T cells among total mononuclear cells, and the percentage of CD4^+CD25^+FoxP3^+ T cells among total CD4^+ T cells. […] Tumor-reactive immune responses were determined by flow cytometric analyses of IFN-γ expression in CD8^+ T cells from the tumor and draining lymph node in response to in vitro stimulation with MB49 cell lysates. […] Tumor volume was monitored to determine the effect of depleting either CD4^+ T cells or CD8^+ T cells on the in vivo antitumor efficacy of doxorubicin. […]

Assay [3] concerns MB49 tumors. As to the kind of experiment: MB49 tumor volume, chemotherapy with or without anti-CD4 or anti-CD8 antibody. It is filed as in vivo, C57BL/6 mice.
From the text: as §1

Assay [4] relates to human SW780 bladder cancer cells. Briefly: Surface exposure of calreticulin (CRT), immunofluorescence cytometry. It is filed as cell-based. The note with it: doxorubicin 10 μM, 4 h.
Assay [5] relates to MB49 tumor cells. Briefly: Priming of tumor-reactive immune responses: IFN-γ production by draining lymph node (DLN) cells on in vitro re-challenge. The note with it: intratumoral doxorubicin 10 μg at d10 following tumor inoculation, established tumors. It counts as in vivo, C57BL/6 mice.
For assay [6], the system named is MB49 tumors. As to the kind of experiment: Intratumoral doxorubicin in mice with pre-established MB49 tumors, tumor growth. It counts as in vivo, C57BL/6 mice.
Assay [7] relates to mouse NKG2D ligands (Rae-1). Briefly: Quantitative real-time PCR of Rae1 transcripts in CT26 cells. The following applies: irinotecan 25 μg/ml or oxaliplatin 10 μg/ml. It is filed as cell-based.
Assay [8] has as its system human NKG2D ligands (MICA/MICB). As to the kind of experiment: Flow cytometry of cell surface MICA/B on HCT116 cells. It counts as cell-based. The note with it: irinotecan 25 μg/ml, 16 h.
Assay [9] deals with CT26 tumors. As to the kind of experiment: CT26 tumor volume, irinotecan with or without NKG2D blocking, anti-CD4 and/or anti-CD8 antibody. The following applies: irinotecan alone. It counts as in vivo, Balb/C mice.

In the case of `N.N.[Cl][Pt][Cl]` [cisplatin], the “CRT exposure compared to doxorubicin” value in [1] (equitoxic doses) is “less effective in increasing CRT exposure”. The “IFN-γ expression in CD8^+ T cells” value in assay [2] (cisplatin alone, 0.5 mg/kg i.p. weekly×4 from d7) was “unable to induce a corresponding elevation of IFN-γ expression”. In addition, the “growth of MB49 tumors” value in [3] (cisplatin alone, 0.5 mg/kg i.p. weekly×4) was “partially inhibited tumor growth but failed to arrest tumor progression”.
Regarding `COc1cccc2c1C(=O)c1c(O)c3c(c(O)c1C2=O)C[C@@](O)(C(=O)CO)C[C@@H]3O[C@H]1C[C@H](N)[C@H](O)[C@H](C)O1` [doxorubicin], the “surface exposure of CRT” value in assay [1] (doxorubicin 10 μM) is “induced rapid surface exposure of CRT; also recorded: efficient translocation of CRT to the cell surface”; in assay [4], “induced rapid surface exposure of CRT”. For the same compound, the “IFN-γ secretion by DLN cells on re-challenge with MB49 cell lysates” value in assay [5] is on record as “failed to induce a corresponding increase in IFN-γ secretion”. Besides, the tumor growth result was “able to arrest tumor growth” in assay [6] (intratumoral doxorubicin 10 μg on d3 following tumor inoculation) and “failed to inhibit the progressive growth” in assay [6] (intratumoral doxorubicin 10 μg on d10 following tumor inoculation). Moreover, the “IFN-γ^+CD8^+ T cells” value in assay [2] (doxorubicin alone, 5 mg/kg i.p. weekly×3 from d7, 5 mg/kg) was “IFN-γ^+CD8^+ T cells became evident; also recorded: tumor-reactive IFN-γ^+CD8^+ T cells were evident”. In [3] (doxorubicin alone, 5 mg/kg i.p. weekly×3), the “growth of MB49 tumors” value was “inhibited the growth of MB49 tumors but failed to arrest tumor progression”.
Regarding `CCc1c2c(nc3ccc(OC(=O)N4CCC(N5CCCCC5)CC4)cc13)-c1cc3c(c(=O)n1C2)COC(=O)[C@]3(O)CC` [irinotecan], the “time after which Rae1 mRNA began to decline” value in assay [7] was found to be 48 h. Also, the “cell surface expression of MICA, MICB” value in [8] (HCT116 cells) is “upregulated”. Besides, the “p53 dependence of upregulation of MICA/B” value in assay [8] (isogenic p53^+/+ and p53^−/− HCT116 cells) was “p53 is not required”. Moreover, the entries for the “growth of CT26 tumors” value in assay [9] (50 mg/kg i.p. weekly×3 from d5) and in assay [9] (50 mg/kg i.p. weekly×3 from d7) were “inhibited the growth of CT26 tumors” and “only slowed tumor growth”, respectively.
For the compound `O=C1[O][Pt]2([NH][C@@H]3CCCC[C@H]3[NH]2)[O]C1=O` [oxaliplatin], the “time after which Rae1 mRNA began to decline” value in assay [7] worked out at 48 h.
